How the values were obtained:
CDK2 = CDK2 (Homo sapiens, UniProt P24941); assay: Kinase selectivity panel; assay type: biochemical
PKM2 = PKM2 (Homo sapiens, UniProt P14618); assay: Kinase selectivity panel; assay type: biochemical
[1] = system: VprBP target genes in DU145 cells; assay: qRT-PCR of VprBP target genes; assay type: cell-based, human; details: B32B3 1 mM
Description: Total RNA was isolated from mock- or VprBP-depleted cells using the TRIzol reagent according to the manufacturer's instructions (Invitrogen). Gene expression microarray experiments were conducted using a whole-genome expression array (Human HT-12 v4 Expression BeadChip, Illumina). This high density oligonucleotide array chip targets more than 47000 probe sequences derived from National Center for Biotechnology Information Reference Sequence (NCBI) RefSeq Release 38 (Nov. 7, 2009) and other sources. Data were processed and analyzed by the ArrayPipe software (www.pathogenomics.ca/arraypipe). For qRT-PCR, total RNA was extracted as described for microarray and subjected to RT reactions with the use of PerfeCta® SYBR Green FastMix (Quanta BIOSCIENCES) and an iCycler IQ5 real time cycler (Bio-Rad). The specificity of the amplification reactions were monitored by melting curve analysis. Assays were normalized to β-actin mRNA levels. The following primers were used for qRT-PCR: […]

ATM = ATM (Homo sapiens, UniProt Q13315); assay: Kinase selectivity panel; assay type: biochemical
[2] = system: H2AT120p and VprBP at target genes in DU145 cells; assay: Chromatin immunoprecipitation (ChIP) at VprBP target genes; assay type: cell-based, human; details: B32B3 1 mM
Description: Mock-depleted or VprBP-depleted DU145 cells were grown to 70-80% confluence, cross-linked with 1% formaldehyde for 10 min, and processed for ChIP as recently described (Kim, K. et al. (2012) Mol. Cell Biol. 32:783-796). […] All samples were run in triplicate and results were averaged. Sequences of the primers used for quantitative real time PCR (qPCR) are as follows: […]

EEF2K = EEF2K (Homo sapiens, UniProt O00418); assay: Kinase selectivity panel; assay type: biochemical
STK25 = STK25 (Homo sapiens, UniProt O00506); assay: Kinase selectivity panel; assay type: biochemical
CHK2 = CHK2 (Homo sapiens, UniProt O96017); assay: Kinase selectivity panel; assay type: biochemical
CDK9 = CDK9 (Homo sapiens, UniProt P50750); assay: Kinase selectivity panel; assay type: biochemical
CDK9, sequence (P50750 whole entry): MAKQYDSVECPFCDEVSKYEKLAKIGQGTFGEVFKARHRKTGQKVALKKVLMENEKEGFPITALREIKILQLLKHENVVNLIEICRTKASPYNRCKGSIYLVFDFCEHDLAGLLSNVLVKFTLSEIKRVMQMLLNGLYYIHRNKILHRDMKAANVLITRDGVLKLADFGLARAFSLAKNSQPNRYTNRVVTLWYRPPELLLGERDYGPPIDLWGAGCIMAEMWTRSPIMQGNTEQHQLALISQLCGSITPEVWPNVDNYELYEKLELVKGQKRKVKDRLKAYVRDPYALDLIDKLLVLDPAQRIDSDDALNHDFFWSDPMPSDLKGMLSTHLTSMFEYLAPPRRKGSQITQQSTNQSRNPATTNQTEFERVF
CDK9, sequence (O60563 whole entry partner): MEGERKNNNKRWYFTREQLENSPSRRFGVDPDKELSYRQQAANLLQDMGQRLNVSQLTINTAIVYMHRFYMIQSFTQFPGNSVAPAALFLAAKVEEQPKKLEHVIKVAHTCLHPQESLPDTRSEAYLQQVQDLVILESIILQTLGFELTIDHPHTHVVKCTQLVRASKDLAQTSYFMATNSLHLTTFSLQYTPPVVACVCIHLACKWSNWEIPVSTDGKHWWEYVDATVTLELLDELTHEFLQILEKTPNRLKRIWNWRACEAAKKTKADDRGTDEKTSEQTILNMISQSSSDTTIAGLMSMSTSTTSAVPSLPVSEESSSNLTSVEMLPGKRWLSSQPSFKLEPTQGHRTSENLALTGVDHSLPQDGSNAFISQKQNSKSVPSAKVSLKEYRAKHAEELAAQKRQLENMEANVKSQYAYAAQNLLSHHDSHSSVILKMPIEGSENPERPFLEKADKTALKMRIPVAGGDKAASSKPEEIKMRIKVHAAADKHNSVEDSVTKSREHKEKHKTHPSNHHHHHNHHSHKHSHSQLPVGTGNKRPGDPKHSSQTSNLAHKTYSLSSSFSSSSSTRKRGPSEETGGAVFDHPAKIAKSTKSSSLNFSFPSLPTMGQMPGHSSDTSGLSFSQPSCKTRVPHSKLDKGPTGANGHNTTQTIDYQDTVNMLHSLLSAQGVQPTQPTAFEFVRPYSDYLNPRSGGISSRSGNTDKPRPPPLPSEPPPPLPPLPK

STK25, sequence (O00506 whole entry): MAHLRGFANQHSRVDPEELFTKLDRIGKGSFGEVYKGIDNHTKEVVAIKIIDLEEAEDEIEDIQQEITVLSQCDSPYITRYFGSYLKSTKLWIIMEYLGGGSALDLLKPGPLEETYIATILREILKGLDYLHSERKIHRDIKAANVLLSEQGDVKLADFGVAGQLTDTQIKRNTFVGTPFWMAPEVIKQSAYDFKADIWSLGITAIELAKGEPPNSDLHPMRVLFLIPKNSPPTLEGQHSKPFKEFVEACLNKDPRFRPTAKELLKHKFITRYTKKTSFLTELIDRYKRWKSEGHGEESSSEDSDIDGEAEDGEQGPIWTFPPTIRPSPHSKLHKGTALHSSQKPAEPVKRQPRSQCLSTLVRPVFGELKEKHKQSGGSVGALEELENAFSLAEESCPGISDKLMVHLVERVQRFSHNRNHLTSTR
ATM, sequence (Q13315 whole entry): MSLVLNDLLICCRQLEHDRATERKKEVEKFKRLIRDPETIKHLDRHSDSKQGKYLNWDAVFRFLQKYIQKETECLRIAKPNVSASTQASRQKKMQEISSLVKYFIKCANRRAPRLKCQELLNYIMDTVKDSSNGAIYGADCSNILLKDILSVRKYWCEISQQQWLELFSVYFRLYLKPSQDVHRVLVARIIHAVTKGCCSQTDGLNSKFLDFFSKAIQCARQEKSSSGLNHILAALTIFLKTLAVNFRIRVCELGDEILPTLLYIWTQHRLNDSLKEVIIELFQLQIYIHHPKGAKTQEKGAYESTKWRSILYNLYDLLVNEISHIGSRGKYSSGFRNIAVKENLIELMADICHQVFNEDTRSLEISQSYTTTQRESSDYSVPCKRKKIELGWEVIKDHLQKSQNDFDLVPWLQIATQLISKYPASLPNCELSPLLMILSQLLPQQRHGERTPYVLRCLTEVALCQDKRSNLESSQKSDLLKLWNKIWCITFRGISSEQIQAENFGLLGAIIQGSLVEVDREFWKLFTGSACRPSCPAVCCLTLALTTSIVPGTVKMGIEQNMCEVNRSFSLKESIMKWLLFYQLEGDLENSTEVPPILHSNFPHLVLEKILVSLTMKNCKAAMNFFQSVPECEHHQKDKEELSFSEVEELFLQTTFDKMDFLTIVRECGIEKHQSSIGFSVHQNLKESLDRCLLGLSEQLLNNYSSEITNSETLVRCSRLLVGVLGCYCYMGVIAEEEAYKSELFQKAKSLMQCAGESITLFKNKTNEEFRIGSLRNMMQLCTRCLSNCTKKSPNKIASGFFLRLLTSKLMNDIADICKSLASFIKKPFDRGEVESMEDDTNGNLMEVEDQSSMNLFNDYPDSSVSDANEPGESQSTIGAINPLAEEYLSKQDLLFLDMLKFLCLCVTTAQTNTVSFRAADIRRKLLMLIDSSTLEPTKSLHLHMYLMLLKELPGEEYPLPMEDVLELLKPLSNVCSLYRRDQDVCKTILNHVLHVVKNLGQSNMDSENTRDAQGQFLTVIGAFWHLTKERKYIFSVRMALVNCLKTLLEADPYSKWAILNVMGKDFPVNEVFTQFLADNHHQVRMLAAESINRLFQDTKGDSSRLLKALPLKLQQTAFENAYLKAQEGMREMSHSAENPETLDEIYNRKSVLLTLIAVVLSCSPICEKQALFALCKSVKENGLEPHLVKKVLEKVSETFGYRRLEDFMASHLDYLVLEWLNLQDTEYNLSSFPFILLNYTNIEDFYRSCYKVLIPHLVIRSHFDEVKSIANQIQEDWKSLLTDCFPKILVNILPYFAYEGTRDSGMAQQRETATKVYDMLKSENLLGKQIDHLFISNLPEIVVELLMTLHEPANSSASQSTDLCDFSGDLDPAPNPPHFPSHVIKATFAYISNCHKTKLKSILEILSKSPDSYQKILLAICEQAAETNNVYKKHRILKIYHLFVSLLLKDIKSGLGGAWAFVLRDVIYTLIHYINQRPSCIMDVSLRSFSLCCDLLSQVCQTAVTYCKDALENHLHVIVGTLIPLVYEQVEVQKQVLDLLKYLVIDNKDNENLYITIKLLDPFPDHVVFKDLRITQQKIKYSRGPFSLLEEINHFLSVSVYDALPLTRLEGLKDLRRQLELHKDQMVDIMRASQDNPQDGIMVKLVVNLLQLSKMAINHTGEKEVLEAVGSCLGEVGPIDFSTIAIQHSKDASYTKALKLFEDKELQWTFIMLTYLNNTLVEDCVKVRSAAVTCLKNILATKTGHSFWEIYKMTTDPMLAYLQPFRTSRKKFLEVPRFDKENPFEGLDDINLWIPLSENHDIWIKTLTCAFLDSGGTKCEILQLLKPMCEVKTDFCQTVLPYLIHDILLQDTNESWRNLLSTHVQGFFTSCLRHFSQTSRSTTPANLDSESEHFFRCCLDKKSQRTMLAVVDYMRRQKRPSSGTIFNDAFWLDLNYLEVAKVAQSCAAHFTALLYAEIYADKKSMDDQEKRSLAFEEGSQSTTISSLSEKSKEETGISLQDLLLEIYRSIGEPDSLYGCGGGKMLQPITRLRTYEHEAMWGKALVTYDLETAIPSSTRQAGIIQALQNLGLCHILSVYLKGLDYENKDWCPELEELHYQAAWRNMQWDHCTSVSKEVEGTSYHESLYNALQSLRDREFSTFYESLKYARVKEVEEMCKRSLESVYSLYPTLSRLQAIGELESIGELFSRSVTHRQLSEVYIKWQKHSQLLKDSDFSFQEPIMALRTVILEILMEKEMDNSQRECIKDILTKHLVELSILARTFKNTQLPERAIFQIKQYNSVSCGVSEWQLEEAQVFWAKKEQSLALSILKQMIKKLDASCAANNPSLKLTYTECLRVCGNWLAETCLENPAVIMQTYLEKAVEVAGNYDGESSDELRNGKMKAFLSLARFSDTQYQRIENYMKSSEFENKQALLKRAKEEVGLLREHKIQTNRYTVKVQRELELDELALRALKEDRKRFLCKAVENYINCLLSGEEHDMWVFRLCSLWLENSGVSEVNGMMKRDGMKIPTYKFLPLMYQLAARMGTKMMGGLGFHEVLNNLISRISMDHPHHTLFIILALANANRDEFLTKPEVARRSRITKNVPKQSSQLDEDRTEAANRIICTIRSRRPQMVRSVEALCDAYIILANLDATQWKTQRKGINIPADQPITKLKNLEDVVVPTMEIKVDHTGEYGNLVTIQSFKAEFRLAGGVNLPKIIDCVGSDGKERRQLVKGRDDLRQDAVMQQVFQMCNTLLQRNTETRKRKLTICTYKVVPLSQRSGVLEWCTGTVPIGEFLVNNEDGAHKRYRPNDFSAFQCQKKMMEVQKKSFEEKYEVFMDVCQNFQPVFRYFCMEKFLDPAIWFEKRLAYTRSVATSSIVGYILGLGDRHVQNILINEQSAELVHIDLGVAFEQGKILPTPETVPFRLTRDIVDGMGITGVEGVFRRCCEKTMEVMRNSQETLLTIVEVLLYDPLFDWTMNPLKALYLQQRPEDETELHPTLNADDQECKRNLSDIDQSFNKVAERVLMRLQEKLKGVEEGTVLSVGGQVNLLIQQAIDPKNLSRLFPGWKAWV
CHK2, sequence (O96017 whole entry): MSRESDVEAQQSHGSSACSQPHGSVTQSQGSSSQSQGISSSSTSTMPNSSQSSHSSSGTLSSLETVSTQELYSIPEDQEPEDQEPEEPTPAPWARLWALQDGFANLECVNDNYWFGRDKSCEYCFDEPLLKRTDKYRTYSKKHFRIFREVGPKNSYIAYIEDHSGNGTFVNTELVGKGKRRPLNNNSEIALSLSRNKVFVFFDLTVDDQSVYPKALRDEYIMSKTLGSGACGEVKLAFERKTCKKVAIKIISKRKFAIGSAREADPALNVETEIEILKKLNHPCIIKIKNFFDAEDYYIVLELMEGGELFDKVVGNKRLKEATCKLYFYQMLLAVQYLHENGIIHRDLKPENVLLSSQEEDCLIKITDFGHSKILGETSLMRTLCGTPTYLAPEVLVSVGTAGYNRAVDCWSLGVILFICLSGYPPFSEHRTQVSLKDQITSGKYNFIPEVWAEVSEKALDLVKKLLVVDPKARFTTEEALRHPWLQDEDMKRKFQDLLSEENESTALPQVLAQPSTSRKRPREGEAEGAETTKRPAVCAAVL

c1ccc2c(CNNc3ncnc4sc5c(c34)CCCC5)c[nH]c2c1 [B32B3]
IC50 (CDK2): > 10 µM | IC50 (PKM2): > 10 µM | Expression of VprBP target genes [1]: higher expression of VprBP target genes | IC50 (ATM): > 10 µM | Reduction of H2AT120p at promoter and coding regions of target genes [2]: 70% | VprBP levels at promoter and coding regions of target genes [2]: did not alter | IC50 (EEF2K): > 10 µM | IC50 (STK25): > 10 µM | IC50 (CHK2): > 10 µM | IC50 (CDK9): > 10 µM
